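These data come from cells grown in 96-well plates and exposed to compound for 48 hours at five concentrations. GI50 = concentration required for 50% inhibition of growth. TGI: concentration producing complete growth inhibition.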
Tests used:
Assay in all cases: DTP human tumour cell line panel, 48 h
A549 NSCLC = system: A549 NSCLC
BT-549 breast = system: BT-549 breast
DU-145 prostate = system: DU-145 prostate
HCC-2998 colon = system: HCC-2998 colon
MDA-MB-435 = system: MDA-MB-435
NCI/ADR-RES ovarian = system: NCI/ADR-RES ovarian
OVCAR-8 ovarian = system: OVCAR-8 ovarian
SK-MEL-28 melanoma = system: SK-MEL-28 melanoma
SW-620 colon = system: SW-620 colon
RXF 393 renal = system: RXF 393 renal

| Compound | GI50 (A549 NSCLC) | TGI (A549 NSCLC) | GI50 (BT-549 breast) | TGI (BT-549 breast) | GI50 (DU-145 prostate) | TGI (DU-145 prostate) | GI50 (HCC-2998 colon) | TGI (HCC-2998 colon) | GI50 (MDA-MB-435) | TGI (MDA-MB-435) | GI50 (NCI/ADR-RES ovarian) | TGI (NCI/ADR-RES ovarian) | GI50 (OVCAR-8 ovarian) | TGI (OVCAR-8 ovarian) | GI50 (SK-MEL-28 melanoma) | TGI (SK-MEL-28 melanoma) | GI50 (SW-620 colon) | TGI (SW-620 colon) | TGI (RXF 393 renal) |
| --- | --- | --- | --- | --- | --- | --- | --- | --- | --- | --- | --- | --- | --- | --- | --- | --- | --- | --- | --- |
| C[C@]12CC[C@@H](OC(=O)N(CCCl)N=O)C[C@@H]1CC[C@@H]1[C@@H]2CC[C@]2(C)C(=O)CC[C@@H]12 | 0.73 µM | 4.69 µM | 14.2 µM | 33.2 µM | 0.671 µM | 7.54 µM | 2.77 µM | 9.43 µM | 10.6 µM | 44.1 µM | 4.88 µM | 30.2 µM | 7.21 µM | 28.5 µM | 14.7 µM | 29.6 µM | 7.67 µM | 22.6 µM | – |
| CC1(O)CCC2(C)C(=O)C1(C)CCC21OCCO1 (centres undefined) | – | > 100 µM | – | – | – | – | – | > 100 µM | – | – | – | – | – | > 100 µM | – | > 100 µM | – | > 100 µM | > 100 µM |
| C/C=C(/C)c1cnc(CC(C)C)c(=O)[nH]1 | – | > 100 µM | – | > 100 µM | – | > 100 µM | – | > 100 µM | – | > 100 µM | – | – | – | > 100 µM | – | > 100 µM | – | > 100 µM | > 100 µM |
| COc1cc2c3c(ncc2c(OC)c1OC)-c1cc2c(cc1C3)OCO2 | 82.9 µM | > 100 µM | – | – | 26.9 µM | > 100 µM | > 100 µM | > 100 µM | > 100 µM | > 100 µM | 36.9 µM | > 100 µM | – | – | 39.1 µM | > 100 µM | 66.4 µM | > 100 µM | – |
| CC1=NOC(=O)C1N=Nc1ccc(Br)c(C)c1 (centres undefined) | – | 46 µM | – | – | – | – | – | 60.6 µM | – | – | – | – | – | 32.7 µM | – | 48.7 µM | – | 34.7 µM | 43.1 µM |
| COc1nc(C)cc2c(=O)n(-c3ccccc3)n(CC(O)CN3CCN(c4ccc(Cl)cc4)CC3)c(=O)c12 (centres undefined) | > 50 µM | > 50 µM | – | – | > 50 µM | > 50 µM | > 50 µM | > 50 µM | > 50 µM | > 50 µM | > 50 µM | > 50 µM | – | – | > 50 µM | > 50 µM | > 50 µM | > 50 µM | – |
| COc1ccccc1NC(=O)C1=C(C)NC(C)=C(C(=O)Nc2ccccc2OC)C1c1ccc(N(C)C)cc1 | – | > 100 µM | – | – | – | – | – | 38.2 µM | – | – | – | – | – | 77.3 µM | – | 58 µM | – | > 100 µM | 68.6 µM |
| COC(=O)C1Cc2c([nH]c3ccccc23)C(c2ccccc2O)N1Cc1ccccc1 (centres undefined) | – | > 46.4 µM | – | – | – | – | – | > 31.6 µM | – | – | – | – | – | > 46.4 µM | – | > 31.6 µM | – | > 46.4 µM | 61.7 µM |
| COC(=O)C(=O)C(C(=O)C(N)=O)c1nc2ccc(C(=O)c3ccccc3)cc2[nH]c1=O (centres undefined) | – | > 100 µM | – | > 100 µM | – | – | – | > 100 µM | – | > 100 µM | – | > 100 µM | – | > 100 µM | – | > 100 µM | – | > 100 µM | > 100 µM |
| COc1c(Sc2ccccc2)cc(Sc2ccccc2)c2cccnc12 | – | > 100 µM | – | – | – | – | – | > 100 µM | – | – | – | – | – | > 100 µM | – | > 100 µM | – | > 100 µM | 51.5 µM |
| NC(=O)c1csc(C2CCC(CO)O2)n1 (centres undefined) | – | > 100 µM | – | – | – | – | – | > 100 µM | – | – | – | – | – | > 100 µM | – | > 100 µM | – | > 100 µM | – |

— PubChem BioAssay (NCI)
